Source: ChEMBL document CHEMBL1201862, “PubChem BioAssay data set” (2004)
Activity calls are given as the source filed them.

Assays:
[1] = HepG2 cell cytotoxicity, dose response, cytotoxicity control for Shn3 inhibitor project, CellTiter-Glo, cherry-picked (AID 624134); assay type: functional, cell-based
[2] = Counterscreen for AddAB inhibitors: absorbance-based bacterial cell-based high throughput dose response assay for inhibitors of bacterial viability. [Related pubchem assays (depositor defined):AID435030, AID449728, AID449731, AID488942, AID488955, AID488956]; assay type: functional
INS1 = assay: beta cell apoptosis inhibitors, cytokine rescue, dose response, luminescence, retest (AID 449756); assay type: functional, cell-based; conditions: Rattus norvegicus;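 note: cell death triggered by IL-1 beta plus TNF-alpha plus IFN-gamma mixture; protective hits raise ATP signal compared with cytokine alone wells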
[3] = Shn3 3'UTR reporter inhibitors, dose response, cell-based, Clone20 osteoblasts, firefly luciferase, cherry-picked (AID 624132); assay type: functional;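 note: firefly luciferase luminescence from reporter carrying the Shn3 3'UTR in osteoblasts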
[4] = THP-1 cell cytotoxicity, dose response, cytotoxicity control for non-replicating M. tuberculosis project (AID 489025); assay type: functional
[5] = cytotoxicity toward NIH3T3 fibroblasts, dose response, counter-screen, cell-based, ATP luminescence, mouse fibroblasts (AID 2010); assay type: functional;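 note: cells exposed to compound for about 90 hours before reading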
cells = assay type: functional
[6] = inhibitors of intracellular T. cruzi replication, confirmation, NIH3T3 host cells, beta-gal luminescence (AID 2044); assay type: functional, cell-based;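 note: intracellular parasites grown in NIH/3T3 mouse fibroblasts as host cells; luminescent beta-galactosidase reporter signal from transgenic T. cruzi replicating inside host cells; inhibitors lower the luminescence signal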
Protein RecA = molecular target: T1, Protein RecA (Mycobacterium tuberculosis, UniProt P9WHJ3); assay: Fluorescence Cell-Free Homogeneous Dose Retest to Identify Inhibitors of RecA-Intein Splicing Activity. [Related pubchem assays (depositor defined):AID2097, AID2223, AID489010, AID492950]; assay type: functional
T1 sequence (P9WHJ3 whole entry): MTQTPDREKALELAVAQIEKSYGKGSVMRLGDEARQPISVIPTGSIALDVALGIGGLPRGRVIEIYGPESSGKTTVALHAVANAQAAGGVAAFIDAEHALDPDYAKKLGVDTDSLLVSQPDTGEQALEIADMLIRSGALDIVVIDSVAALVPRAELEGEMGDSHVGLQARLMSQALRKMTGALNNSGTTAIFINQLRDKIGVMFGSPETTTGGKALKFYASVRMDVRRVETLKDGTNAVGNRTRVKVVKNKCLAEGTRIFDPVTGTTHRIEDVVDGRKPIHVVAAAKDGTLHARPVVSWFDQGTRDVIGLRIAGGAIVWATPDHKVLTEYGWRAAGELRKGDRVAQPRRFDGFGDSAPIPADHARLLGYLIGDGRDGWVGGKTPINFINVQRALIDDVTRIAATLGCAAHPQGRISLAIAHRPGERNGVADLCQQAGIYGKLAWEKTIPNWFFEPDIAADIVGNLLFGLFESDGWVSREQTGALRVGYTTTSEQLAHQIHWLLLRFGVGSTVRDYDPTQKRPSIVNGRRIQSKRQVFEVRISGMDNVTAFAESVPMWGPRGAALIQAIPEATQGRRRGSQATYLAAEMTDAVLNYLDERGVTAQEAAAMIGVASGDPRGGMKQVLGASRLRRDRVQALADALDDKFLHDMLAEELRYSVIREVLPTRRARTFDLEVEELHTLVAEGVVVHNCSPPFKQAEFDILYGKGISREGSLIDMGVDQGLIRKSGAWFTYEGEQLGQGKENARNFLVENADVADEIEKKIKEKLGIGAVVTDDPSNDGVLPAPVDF

Genome polyprotein = Genome polyprotein (dengue virus type 2, UniProt P29990); assay: Dengue-2 NS5 methyltransferase inhibitors, primary screen, biochemical, confirmation dose response (AID 588689); assay type: functional
Sequence of Genome polyprotein (P29990 2492-3391 limits assumed): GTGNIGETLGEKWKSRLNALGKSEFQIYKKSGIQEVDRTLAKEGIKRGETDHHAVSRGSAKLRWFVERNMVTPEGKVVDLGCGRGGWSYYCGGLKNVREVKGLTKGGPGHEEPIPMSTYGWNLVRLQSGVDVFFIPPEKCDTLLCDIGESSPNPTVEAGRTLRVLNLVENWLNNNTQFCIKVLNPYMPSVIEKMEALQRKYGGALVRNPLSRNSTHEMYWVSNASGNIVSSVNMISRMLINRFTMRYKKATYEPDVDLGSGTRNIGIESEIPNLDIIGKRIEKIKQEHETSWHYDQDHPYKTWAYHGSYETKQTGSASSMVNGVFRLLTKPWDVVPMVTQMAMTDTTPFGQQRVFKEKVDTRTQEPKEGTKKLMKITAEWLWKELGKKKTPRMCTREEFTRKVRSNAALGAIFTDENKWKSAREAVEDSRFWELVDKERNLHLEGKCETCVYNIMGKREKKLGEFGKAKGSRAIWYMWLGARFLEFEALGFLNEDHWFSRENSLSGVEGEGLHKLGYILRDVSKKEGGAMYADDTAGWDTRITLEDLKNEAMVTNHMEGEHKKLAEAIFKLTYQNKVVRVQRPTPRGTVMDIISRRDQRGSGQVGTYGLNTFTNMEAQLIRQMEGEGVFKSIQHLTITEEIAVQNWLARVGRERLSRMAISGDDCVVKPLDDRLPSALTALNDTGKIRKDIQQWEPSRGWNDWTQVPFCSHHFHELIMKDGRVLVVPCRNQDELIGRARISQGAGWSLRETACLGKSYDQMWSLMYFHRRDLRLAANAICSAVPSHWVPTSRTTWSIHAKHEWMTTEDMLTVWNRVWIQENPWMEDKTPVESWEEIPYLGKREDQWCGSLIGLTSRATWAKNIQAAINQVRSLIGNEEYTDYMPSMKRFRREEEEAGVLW

O=C(CC(O)(C(F)(F)F)C(F)(F)F)Nc1ccc(Cl)c(Cl)c1
AC50 [1]: 3.7 µM (active)
IC50 [2]: 39 µM (inactive)
AC50 (INS1): 2.44 µM (active)
AC50 [3]: 4.97 µM (active)

O=C(CNc1cccc2ccccc12)N/N=C/c1ccc([N+](=O)[O-])o1
CC50 [4]: 16.8 µM (active)
EC50 [5]: > 60 µM (not active)
IC50 [2]: > 118 µM (inactive)
AC50 (INS1): 5.58 µM (active)
IC50 (cells): 3.24 µM (active)
EC50 [6]: < 0.1 µM (active)

O=C(O)CSc1cc(NS(=O)(=O)c2ccc(Br)cc2)c2ccccc2c1O
EC50 (Protein RecA): 0.244 µM (active)
IC50 (Genome polyprotein): 7.66 µM (active)

Cc1ccc(NC(=O)C2=C(c3ccccc3)S(=O)(=O)CCS2(=O)=O)cc1
CC50 [4]: 19.4 µM (active)
EC50 [5]: 2.48 µM (active)
AC50 [1]: 12.5 µM (active)
AC50 (INS1): 6.54 µM (active)
IC50 (cells): 38.3 µM (active)
EC50 [6]: 1.97 µM (active)
AC50 [3]: 0.558 µM (active)
EC50 (Protein RecA): 1.01 µM (active)
IC50 (Genome polyprotein): > 100 µM (active)
